Laboratory results reported in patent US20170107203A1, “HETEROCYCLIC INHIBITORS OF THE SODIUM CHANNEL” (EPIRUS BIOPHARMACEUTICALS, INC., priority 2014, published 2017).

Molecular target: T1, human Nav1.7 (Homo sapiens, UniProt Q15858)
T1 construct: expressed in transfected cells
Test: Assessment of Nav1.7 activity on PatchXpress (voltage dependence / slow inactivation parameters)
Format: cell-based
Details: compound at 10 μM, relative to 0.2% DMSO vehicle control; for hNav1.7: Reduction in current at 20 mV (normalized data) Delta Ratio: before/after 30 sec conditioning pulse at 20 mV; for hNav1.7: Shift in voltage dependence of inactivation (mV) Delta Vhalf: PatchXpress
Procedure: The generation of a HEK 293F cell line stably expressing human Nav1.7/Navp1 was achieved by co-transfecting human SCN9A and human SCN1B cDNAs, subcloned into plasmid vectors, utilizing standard transfection techniques. Clones were selected using appropriate selection agents (0.3 mg/mL Zeocin and 0.8 mg/mL Geneticin) and maintained in Dulbecco's Modified Eagle medium, 10% fetal bovine serum, 1% non-essential amino acids to ˜80% confluence at 37° C. in a humidified incubator with 95% atmosphere and 5% CO2.
On the day of each experiment, cells that were grown to 80% confluence in a T75 flask were harvested for use on PatchXpress (Molecular Devices, CA, USA). Following a recovery period at 37° C. in a humidified incubator with 95% atmosphere and 5% CO2 in Dulbecco's Modified Eagle Medium, the media was replaced with an external recording solution containing (in mM): 90 TEACI, 50 NaCl, 1.8 CaCl2, 1 MgCl2, 10 HEPES, 10 glucose, adjusted to pH 7.4 with TEAOH and 300 mOsm with sucrose. The internal recording solution contained (in mM): 129 CsF, 2 MgCl2, 11 EGTA, 10 HEPES, 6 NaCl, 3 Na2ATP adjusted to pH 7.2 with CsOH and 280 mOsm with sucrose. The automated liquid handling facility of PatchXpress dispensed cells and added compound. Modulation of Nav1.7 channels by compounds was assessed by promoting the channels into the inactivated state using a conditioning voltage pulse of variable amplitude, followed by a brief hyperpolarizing pulse with a subsequent depolarized voltage step to measure the current amplitude in the presence and absence of compound. Compounds were assayed at 10 μM. Based upon this Patch express protocol, four electrophysiological parameters were measured relative to a 0.2% DMSO vehicle control (Table 2).

T1 sequence (Q15858 whole entry): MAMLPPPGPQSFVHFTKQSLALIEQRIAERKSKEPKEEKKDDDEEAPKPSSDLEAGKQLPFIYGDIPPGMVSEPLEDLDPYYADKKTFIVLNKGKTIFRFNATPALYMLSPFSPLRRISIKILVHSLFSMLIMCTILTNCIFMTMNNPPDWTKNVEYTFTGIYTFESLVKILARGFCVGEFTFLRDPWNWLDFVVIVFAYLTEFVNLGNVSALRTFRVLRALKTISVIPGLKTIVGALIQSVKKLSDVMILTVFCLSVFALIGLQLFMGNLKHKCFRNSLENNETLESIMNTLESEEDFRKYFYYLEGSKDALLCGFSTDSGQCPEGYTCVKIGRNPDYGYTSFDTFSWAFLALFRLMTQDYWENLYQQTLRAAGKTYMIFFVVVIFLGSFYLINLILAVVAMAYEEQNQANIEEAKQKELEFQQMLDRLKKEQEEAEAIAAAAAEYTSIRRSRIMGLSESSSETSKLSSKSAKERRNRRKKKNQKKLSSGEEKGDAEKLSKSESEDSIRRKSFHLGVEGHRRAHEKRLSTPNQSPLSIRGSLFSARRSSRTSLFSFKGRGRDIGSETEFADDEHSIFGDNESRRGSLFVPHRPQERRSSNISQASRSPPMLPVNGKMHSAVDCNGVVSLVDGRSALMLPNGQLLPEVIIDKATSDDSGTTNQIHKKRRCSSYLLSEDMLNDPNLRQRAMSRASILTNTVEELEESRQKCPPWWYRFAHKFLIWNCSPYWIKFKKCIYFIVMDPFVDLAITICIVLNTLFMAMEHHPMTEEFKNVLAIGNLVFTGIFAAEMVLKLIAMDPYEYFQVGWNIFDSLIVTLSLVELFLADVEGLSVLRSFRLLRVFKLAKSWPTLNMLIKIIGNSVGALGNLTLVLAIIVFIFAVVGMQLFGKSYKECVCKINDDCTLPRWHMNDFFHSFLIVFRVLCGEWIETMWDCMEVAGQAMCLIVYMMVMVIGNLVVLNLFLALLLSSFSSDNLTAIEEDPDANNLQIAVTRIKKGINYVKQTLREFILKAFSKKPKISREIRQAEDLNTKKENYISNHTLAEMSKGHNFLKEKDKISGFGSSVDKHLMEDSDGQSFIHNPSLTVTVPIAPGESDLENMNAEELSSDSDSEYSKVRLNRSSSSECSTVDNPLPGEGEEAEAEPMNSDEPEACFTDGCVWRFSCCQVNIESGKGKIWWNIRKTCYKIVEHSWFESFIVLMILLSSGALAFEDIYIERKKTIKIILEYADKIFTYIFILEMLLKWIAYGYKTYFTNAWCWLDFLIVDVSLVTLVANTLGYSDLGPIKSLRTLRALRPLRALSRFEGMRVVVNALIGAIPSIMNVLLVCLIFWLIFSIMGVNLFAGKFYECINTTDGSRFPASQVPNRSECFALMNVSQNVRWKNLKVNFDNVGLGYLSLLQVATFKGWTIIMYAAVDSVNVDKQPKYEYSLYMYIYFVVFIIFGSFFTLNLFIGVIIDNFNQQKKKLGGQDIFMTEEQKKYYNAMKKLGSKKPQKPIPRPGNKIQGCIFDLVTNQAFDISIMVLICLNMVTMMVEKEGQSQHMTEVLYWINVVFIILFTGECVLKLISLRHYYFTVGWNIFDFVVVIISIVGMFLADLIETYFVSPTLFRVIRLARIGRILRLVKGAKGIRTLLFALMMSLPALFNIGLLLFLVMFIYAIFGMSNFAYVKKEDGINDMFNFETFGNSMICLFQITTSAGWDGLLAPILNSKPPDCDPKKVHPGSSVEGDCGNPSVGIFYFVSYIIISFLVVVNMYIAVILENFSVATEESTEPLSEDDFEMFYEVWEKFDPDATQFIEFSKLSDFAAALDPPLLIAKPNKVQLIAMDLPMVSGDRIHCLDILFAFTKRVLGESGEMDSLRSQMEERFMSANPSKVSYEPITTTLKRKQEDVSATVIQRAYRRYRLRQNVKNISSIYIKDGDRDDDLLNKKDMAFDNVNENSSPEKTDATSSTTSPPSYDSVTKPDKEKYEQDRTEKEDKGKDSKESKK
T1 sequence (Q07699 19-218 partner): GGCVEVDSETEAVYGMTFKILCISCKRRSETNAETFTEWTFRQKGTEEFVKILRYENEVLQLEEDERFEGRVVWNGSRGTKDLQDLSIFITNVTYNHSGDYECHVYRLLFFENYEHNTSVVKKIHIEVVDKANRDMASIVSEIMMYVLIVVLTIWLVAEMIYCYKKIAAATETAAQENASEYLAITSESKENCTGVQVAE

hNav1.7: Reduction in current at 20 mV (normalized data) Delta Ratio | hNav1.7: Voltage dependence of activation (mV) VDEP [mV] | hNav1.7: Voltage dependence of fast inactivation (mV) VDEP [mV] | hNav1.7: Shift in voltage dependence of inactivation (mV) Delta Vhalf [mV] | SMILES
0.02 | −6.60 | −2.50 | 0.50 | CC1(c2cc(C(F)(F)F)cc(C(F)(F)F)c2)NC(=O)NC1=O (centres unmarked) [Compound 42, 5-(3,5-bis(trifluoromethyl)phenyl)-5-methylimidazolidine-2,4-dione]
−0.21 | −14.4 | −3.3 | −16.8 | N[C@H](Cc1ccc(F)cc1)Cc1nc2cc(C(F)(F)F)cc(C(F)(F)F)c2[nH]1 [Compound 56, (R)-1-(4,6-bis(trifluoromethyl)-1H-benzo[d]imidazol-2-yl)-3-(4-fluorophenyl)propan-2-amine]
−0.28 | −8.2 | −3.9 | −7.2 | N[C@@H](Cc1ccccc1)Cc1nc2cc(C(F)(F)F)cc(C(F)(F)F)c2[nH]1 [Compound 53, (S)-1-(4,6-bis(trifluoromethyl)-1H-benzo[d]imidazol-2-yl)-3-phenylpropan-2-amine]
−0.03 | −9.3 | −3.8 | −7.2 | COC[C@@H](N)C(=O)NCC(=O)NCc1cc(C(F)(F)F)cc(C(F)(F)F)c1 [Compound 80, (R)-2-amino-N-(2-((3,5-bis(trifluoromethyl)benzyl)amino)-2-oxoethyl)-3-methoxypropanamide]
−0.06 | −11.4 | −3.9 | −0.3 | CC(C)(C)OC(=O)N[C@H](Cc1cccc(C(F)(F)F)c1)C(=O)NCc1nc2ccc(-c3ccc(F)c(Cl)c3)cc2[nH]1 [Compound 76, tert-butyl (R)-(1-(((6-(3-chloro-4-fluorophenyl)-1H-benzo[d]imidazol-2-yl)methyl)amino)-1-oxo-3-(3-(trifluoromethyl)phenyl)propan-2-yl)carbamate]
−0.06 | −15.4 | −3.7 | −2.3 | N[C@H](Cc1cccc(C(F)(F)F)c1)C(=O)NCc1nc2c(C(F)(F)F)cc(C(F)(F)F)cc2[nH]1 [Compound 75, (R)-2-amino-N-((4,6-bis(trifluoromethyl)-1H-benzo[d]imidazol-2-yl)methyl)-3-(3-(trifluoromethyl)phenyl)propanamide]
−0.13 | −9.7 | −7.6 | −7.8 | CC(C)(CC(=O)N1CCNCC1)c1nc2cc(F)cc(F)c2[nH]1 [Compound 67, 3-(4,6-difluoro-1H-benzo[d]imidazol-2-yl)-3-methyl-1-(piperazin-1-yl)butan-1-one]
−0.20 | −5.00 | −3.90 | −19.70 | O=C(NCCOc1cc(C(F)(F)F)cc(C(F)(F)F)c1)[C@H]1CCCN1 [Compound 11, (R)-N-(2-(3,5-bis(trifluoromethyl)phenoxy)ethyl) pyrrolidine-2-carboxamide]
−0.19 | −8.3 | −3.8 | −9.2 | CC(C)(c1nc2cc(C(F)(F)F)cc(C(F)(F)F)c2[nH]1)N1CCNCC1=O [Compound 60, 1-(2-(4,6-bis(trifluoromethyl)-1H-benzo[d]imidazol-2-yl)propan-2-yl)piperazin-2-one]
−0.17 | −8.1 | −6.4 | −9.7 | O=C1CNCCN1Cc1nc2cc(Br)ccc2[nH]1 [Compound 63, 1-((6-bromo-1H-benzo[d]imidazol-2-yl)methyl)piperazin-2-one]
−0.19 | −7.4 | −3.8 | −12.5 | CC(C)(CC(=O)N1CCNCC1)c1nc2cc(C(F)(F)F)cc(C(F)(F)F)c2[nH]1 [Compound 62, 3-(4,6-bis(trifluoromethyl)-1H-benzo[d]imidazol-2-yl)-3-methyl-1-(piperazin-1-yl)butan-1-one]
0.02 | −6.7 | −2.4 | 0 | FC(F)(F)c1cc(C(F)(F)F)c2nc([C@H]3CCCCN3)[nH]c2c1 [Compound 84, (R)-2-(piperidin-2-yl)-5,7-bis(trifluoromethyl)-1H-benzo[d]imidazole]
−0.14 | −14.5 | −6.9 | −12.0 | O=C(CCc1nc2cc(F)cc(F)c2[nH]1)N1CCNCC1 [Compound 66, 3-(4,6-difluoro-1H-benzo[d]imidazol-2-yl)-1-(piperazin-1-yl)propan-1-one]
−0.04 | −12.90 | −5.00 | −2.90 | Cc1cccc(C)c1OCC(C)NC(=O)CCN1CCNCC1=O (centres unmarked) [Compound 36, N-(1-(2,6-dimethylphenoxy)propan-2-yl)-3-(2-oxopiperazin-1-yl)propanamide]
−0.04 | −7.90 | −4.50 | −1.70 | CC12CC3CC(C)(C1)CC(NC(=O)CCN)(C3)C2 [Compound 46, 3-amino-N-(3,5-dimethyladamantan-1-yl)propanamide]
−0.16 | −7.1 | −5.9 | −5.4 | CC(C)(c1nc2cc(F)cc(F)c2[nH]1)N1CCNCC1=O [Compound 64, 1-(2-(4,6-difluoro-1H-benzo[d]imidazol-2-yl)propan-2-yl)piperazin-2-one]
−0.19 | −11.3 | −5.1 | −9.2 | O=C(CCc1nc2cc(C(F)(F)F)cc(C(F)(F)F)c2[nH]1)N1CCNCC1 [Compound 61, 3-(4,6-bis(trifluoromethyl)-1H-benzo[d]imidazol-2-yl)-1-(piperazin-1-yl)propan-1-one]
0.02 | −8.30 | −2.10 | −0.30 | CC(=O)N1CCC(NC(=O)Nc2ccc(OC(F)(F)F)cc2)CC1 [Compound 50, 1-(1-acetylpiperidin-4-yl)-3-(4-(trifluoromethoxy)phenyl)urea]
0.00 | −5.20 | −10.40 | −4.20 | NC1(C(=O)NCCOc2cc(C(F)(F)F)cc(C(F)(F)F)c2)CC1 [Compound 21, 1-amino-N-(2-(3,5-bis(trifluoromethyl)phenoxy)ethyl) cyclopropane-1-carboxamide]
−0.07 | −8.70 | −6.00 | −5.30 | Cc1cccc(C)c1OCC(C)NC(=O)C(C)(C)CC(=O)N1CCNCC1 (centres unmarked) [Compound 33, N-(1-(2,6-dimethylphenoxy)propan-2-yl)-2,2-dimethyl-4-oxo-4-(piperazin-1-yl)butanamide]
